For data set [1], the system named is HBV DNA in HepG2.2.15 cells. Kind of data set: In vitro cell HBV DNA inhibitory activity (anti-HBV activity) in HepG2.2.15 cells. Type of data set: cell-based. Particulars: Hepatitis B virus, 144 h; anti-HBV activity in HepG2.2.15 cells, 6 days treatment, intracellular capsid HBV DNA by qPCR; read-out: EC50. A digest of the protocol:
(§1)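 HepG2.2.15 or HepAD38 cells on collagen-coated plates were grown 48 h, then treated 6 days with 10-point two-fold compound dilutions, with medium and compound refreshed every 72 h. Intracellular capsid HBV DNA quantified by real-time qPCR. EC50 from Ct-based inhibition by four-parameter fit.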
On the technique in general: Real-time PCR tracks product formation cycle by cycle.

Data set [2] can be described thus: Stability of rat liver microsomes in vitro. The class given is in vitro ADME. How it is done:
(§2) 300 μL of a final incubation system contains 30 μL of liver microsomes (protein concentration: 0.15 mg/mL), 30 μL NADPH+MgCl2, 3 μL substrate (formulated with acetonitrile), and 237 μL PBS buffer. Duplicate incubation systems of 0.3 mL each were formulated for each species. A total volume of 270 μL of a uniformly mixed solution of the substrate and the enzyme was formulated in each tube, the solution and NADPH were pre-incubated at 37° C. for 5 minutes, respectively. Then 30 μL of the mixed solution of NADPH+MgCl2 was added for reaction. 50 μL of the reaction solution was taken out at 0, 10, 30, and 60 mins, and the reaction was terminated with 300 μL of ice acetonitrile containing an internal standard.
(§3) Sample pre-treatment: To 50 μL of the incubated sample was added 300 μL of ice acetonitrile containing diazepam as an internal standard and then precipitated. After vortexing for 5 minutes, the sample was centrifugated (12000 rpm, 4° C.) for 10 minutes. 75 μL of the supernatant was pipetted into a 96-well plate, and then diluted with 75 μL ultrapure water and mixed uniformly. 0.5 μL of the resulting solution was injected and analyzed by LC-MS/MS.
(Microsomes from liver hold many membrane-bound enzymes, among them those of drug oxidation.)

The subject of data set [3] is HBV (recombinant plasmid pHBV 1.3). Description: Antiviral effect evaluation in HDI mouse model. Particulars: 30 mg/kg intragastric once daily for 6 days. Type of data set: in vivo, C57BL/6 mice. On the procedure: 6-8 week old male C57BL/6 mice was used, and each mouse was injected with purified recombinant plasmid pHBV 1.3 (10 μg) dissolved in PBS equivalent to a volume of about 10% of its body weight through the tail vein within 3-8 s. Blood was collected from the orbits of the mice at 24 hours after the plasmid injection to detect serum HBV DNA. The model mice having uniform serum DNA were selected and divided into: a blank control group, a vehicle control group, and a test substance group. Mice in each group were continuously administered intragastrically once daily for 6 days at a dose of 30 mg/kg. The mouse serum was taken on day 1, 3, 5, and 7 after the injection, and the mice were sacrificed on day 7 to take liver tissue samples. The HBV DNA copy numbers in serum and liver of the mice were detected by fluorescent quantitative PCR method.

The subject of another data set is HBV DNA in HepAD38 cells. Kind of data set: In vitro cell HBV DNA inhibitory activity (anti-HBV activity) in HepAD38 cells. The class given is cell-based. Particulars: Hepatitis B virus, 144 h; anti-HBV activity in HepAD38 cells, 6 days treatment, intracellular capsid HBV DNA by qPCR; read-out: EC50. A digest of the protocol: as §1
A short description of data set [4]: Plasma protein binding assay (equilibrium dialysis), mouse plasma. Type of data set: in vitro ADME. How it is done:
(§4) Formulation of plasma sample: 495 μL of blank plasmas of the corresponding species (mouse, rat, dog, monkey, and human) were drawn respectively, and thereto was added 5 μL of the corresponding test compound solution or positive control to give plasma sample solutions having a plasma drug concentration of the compound of 1 μM, and 10 μM, respectively (formulated with acetonitrile).
(§5) The pre-treated dialysis membrane was placed in a high-throughput equilibrium dialysis device, and 100 μL of the plasma sample solution and PBS buffer solution were drawn and added respectively to both sides of the dialysis membrane (sample side and buffer side) (n=3). After the equilibration device was sealed with a film, it was incubated at 37° C. overnight (100 rpm). After dialysis equilibrium was reached, 50 μL samples were drawn from the sample side and the buffer side, respectively, and the reaction was terminated by adding ice acetonitrile containing an internal standard.
(§6) Sample pre-treatment: To 50 μL of the plasma-side sample was added 450 μL of ice acetonitrile containing an internal standard, and then precipitated. After vortexing for 5 minutes, the sample was centrifugated (12000 rpm, 4° C.) for 10 minutes. 75 μL of the supernatant was pipetted, and 75 μL of ultrapure water was added thereto for dilution and mixed uniformly. 1 μL of the resulting solution was injected for analysis. To 50 μL of the PBS-side sample was added 250 μL of ice acetonitrile with an internal standard, and precipitated. After vortexing for 5 min, the sample was centrifugated (12000 rpm, 4° C.) for 10 min. 75 μL of the supernatant was pipetted, and 75 μL of ultrapure water was added thereto for dilution and mixed uniformly. 2 μL of the resulting solution was injected for analysis.

The nature of data set [5]: Plasma protein binding assay (equilibrium dialysis), monkey plasma. The class given is in vitro ADME. How it is done: as §4, §5, §6
In general terms: Equilibrium dialysis compares concentrations on both sides of a semipermeable membrane.

The nature of data set [6]: Stability of mouse liver microsomes in vitro. Type of data set: in vitro ADME. How it is done:
as §2, §3

A word on the EC50: it is the concentration needed to bring the measured effect to its halfway point. With `Cc1c(C(=O)Nc2ccc(F)c(C#N)c2)c(C)n(C)c1C(=O)C(=O)N[C@@H](C)C(F)(F)F` [Example 12], the EC50 (in data set [1]; with HBV DNA in HepAD38 cells) was under 10 nM in each case. Besides, the results for the “Remaining (%) at 60 min” value in data set [2] and in data set [6] were 65.0% and 67.1%, respectively. For the same molecule, the “Reduction levels (log10) of HBV DNA in semm on day 5” value in data set [3] is recorded as 2.17 log10. For the same molecule, the Binding rate in data set [4] (1 μM) amounted to 75.3%; in data set [4] (10 μM), 74.5%; in data set [5] (1 μM), 90.7%; in data set [5] (10 μM), 90.6%.

For the molecule `Cc1c(C(=O)Nc2ccc(F)c(C#N)c2)c(C)n(C)c1C(=O)C(=O)NC1(C(F)(F)F)COC1` [Example 25, N-(3-cyano-4-fluorophenyl)-1,2,4-trimethyl-5-(2-oxo-2-((3-(trifluoromethyl)oxetan-3-yl)amino)acetyl)-1H-pyrrole-3-carboxamide], the half-maximal effective concentration (EC50) (in data set [1]; in the data set on HBV DNA in HepAD38 cells) was under 10 nM in each case. Also, the “Remaining (%) at 60 min” value turned out to be 52.0% in data set [2] and 50.8% in data set [6]. The “Reduction levels (log10) of HBV DNA in semm on day 5” value in data set [3] turned out to be 1.73 log10. In addition, the Binding rate was determined as 76.5% in data set [4] (1 μM), 74.7% in data set [4] (10 μM), 87.4% in data set [5] (1 μM) and 85.6% in data set [5] (10 μM).

(Values after US12116356B2, “N-heterocyclic five-membered ring-containing capsid protein assembly inhibitor, pharmaceutical composition thereof, and use thereof” (CHIA TAI TIANQING PHARMACEUTICAL GROUP CO., LTD., priority 2018, dated 2024).)
